These results are taken from patent US8114850B2, “Antiproliferative activity of G-rich oligonucleotides and method of using same to bind to nucleolin” (Advanced Cancer Therapeutics, LLC, priority 1999, dated 2012).

Series [1] in a line: Detection of G-quartets by UV thermal denaturation/renaturation. The series is classed as physicochemical. Conditions: absorbance at 295 nm; for G-quartet formation (UV annealing curve): FIG. 4. On the procedure: Oligonucleotides were resuspended in Tm buffer (20 mM Tris HCl, pH 8.0, 140 mM KCl, 2.5 mM MgCl2) at a concentration such that A260=0.6 (molar concentrations ranged from […]). Samples were annealed by boiling for five minutes and allowing to cool slowly to room temperature and overnight incubation at 4° C. Thermal denaturation/renaturation experiments were carried out using an Amersham Pharmacia Biotech Ultrospec 2000 instrument equipped with a Peltier effect heated cuvette holder and temperature controller (Amersham Pharmacia Biotech). Absorbance at 295 nm was monitored over a temperature range of 25-95 or 20-90° C. at a heating/cooling rate of 0.5° C./min. To investigate the formation of G-quartet structures by the G-rich oligonucleotides, a U.V. melting technique described by […] et al. (1998) FEBS Lett. 435, 74-78 was used. This method relies on the fact that dissociation of G-quartets leads to a decrease in absorbance at 295 nm and is reported to give a more reliable indication of intramolecular G-quartet formation than measurement at 260 nm.

In series [2] the target is T1, 106 kDa nuclear protein (p106, GRO-binding protein/nucleolin) (Homo sapiens, UniProt P19338).
T1 construct: HeLa nuclear extracts used in EMSAs were purchased from Promega Inc. (bandshift grade); host or cells: HeLa nuclear extract (bandshift grade), purchased
T1 sequence (P19338 whole entry): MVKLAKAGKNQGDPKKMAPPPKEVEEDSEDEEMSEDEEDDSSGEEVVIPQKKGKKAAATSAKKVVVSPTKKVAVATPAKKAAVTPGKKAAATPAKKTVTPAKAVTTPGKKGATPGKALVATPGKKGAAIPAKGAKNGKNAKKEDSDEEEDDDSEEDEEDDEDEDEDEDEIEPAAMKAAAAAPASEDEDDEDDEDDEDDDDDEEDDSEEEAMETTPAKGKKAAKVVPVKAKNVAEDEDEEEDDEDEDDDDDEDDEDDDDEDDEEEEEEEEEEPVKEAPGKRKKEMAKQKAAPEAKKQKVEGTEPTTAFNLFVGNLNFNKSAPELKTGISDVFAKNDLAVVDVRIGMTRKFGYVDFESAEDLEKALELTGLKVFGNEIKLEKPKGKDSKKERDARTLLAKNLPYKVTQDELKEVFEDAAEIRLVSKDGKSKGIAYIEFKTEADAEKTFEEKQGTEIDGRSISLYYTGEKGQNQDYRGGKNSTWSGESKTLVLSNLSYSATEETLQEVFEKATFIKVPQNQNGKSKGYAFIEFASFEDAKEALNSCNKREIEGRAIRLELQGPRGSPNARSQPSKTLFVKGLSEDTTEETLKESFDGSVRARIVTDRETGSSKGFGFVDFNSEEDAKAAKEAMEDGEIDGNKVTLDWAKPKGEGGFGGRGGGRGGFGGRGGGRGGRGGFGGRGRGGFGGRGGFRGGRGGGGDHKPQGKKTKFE
Put plainly: Southwestern blot of HeLa nuclear extracts. Conditions: 32P-labeled oligonucleotide, 4° C.; FIG. 6D. As to the method:
Nuclear extracts were electrophoresed on a 8% polyacrylamide-SDS gel and transferred to polyvinylidene difluoride (PVDF) membrane by electroblotting using a Tris glycine/methanol (10% v/v) buffer. Immobilized proteins were denatured and renatured by washing for thirty minutes at 4° C. with 6 M guanidine. HCl followed by washes in 1:1, 1:2 and 1:4 dilutions of 6M guanidine in HEPES binding buffer (25 mM HEPES pH 7.9, 4 mM KCl, 3 mM MgCl2). The membrane was blocked by washing for one hour in a 5% solution of non-fat dried milk (NDM) in binding buffer.
Hybridization of the labeled oligonucleotide (1-4×10^6 cpm) took place for two hours at 4° C. in HEPES binding buffer supplemented with 0.25% NDM, 0.05% Nonidet P […] salmon sperm DNA and […] of an unrelated, mixed sequence 35-mer oligonucleotide (5′-[…] CTTCCTTCCTCTCCA-3′SEQ ID No: 19). Membranes were washed in binding buffer and visualized by autoradiography.
The molecular weight of the nuclear protein was more accurately determined by Southwestern blotting. HeLa nuclear extracts were electrophoresed on an 8% polyacrylamide-SDS gel and transferred to a PVDF membrane. The membrane was blocked and cut into strips. Each strip was incubated at 4° C. with a 32P-labeled G-rich oligonucleotide in the presence of unrelated unlabeled double stranded and single stranded DNA to block non-specific binding.

Series [3] concerns MDA-MB-231 breast cancer cells. Put plainly: MTT cell growth assay, MDA-MB-231 cells. The series is classed as cell-based, human. Conditions: for antiproliferative activity, MDA-MB-231: single 10 uM dose, FIG. 7A. On the procedure:
Cells were plated at low density ([…] cells per well, depending on cell line) in the appropriate serum-supplemented medium in 96-well plates (one plate per MTT assay time point) and grown under standard conditions of cell culture. The following day (day 1) oligonucleotide, or water as control, was added to the culture medium to give a final concentration of 15 uM. Further oligonucleotide, equivalent to half the initial dose, was added to the culture medium on days two, three and four. Cells were assayed using the MTT assay (Morgan (1998) Methods. Mol. Biol. 79, 179-183) on days one, three, five, seven and nine after plating. The culture medium was not changed throughout the duration of the experiment (which was the time required for untreated cells to grow to confluence). Experiments were performed in triplicate and bars represent the standard error of the data. For the experiment shown in FIG. 7A, MDA-MB-231 breast cancer cells (5×10^2 cells per well) were plated in a 96-well plate. After twenty-four hours, a single dose of oligonucleotide, or equal volume of PBS as a control, was added to the culture medium to a final concentration of 10 uM. Viable cells were assessed seven days after plating using the MTT assay. For the experiment using 3′-unmodified oligonucleotides (FIG. 7D), serum-supplemented medium was replaced by serum-free medium containing oligonucleotide (or serum-free medium alone in control wells). After incubation at 37° C. for four hours, fetal calf serum (Life Technologies, Inc.) was added to the medium to give 10% v/v.
Background: Tetrazolium assays rely on reduction of a dye to a coloured formazan, in cell work by metabolically active cells.

In series [4] the target is T2, TEL-binding protein (GRO-binding protein/nucleolin, MDA-MB-231 nuclear extracts) (Homo sapiens, UniProt P19338).
T2 construct: Nuclear and cytoplasmic extracts from MDA-MB-231 cells were prepared using the protocol described in F. M. Ausubel et al; endogenous in cells; host or cells: MDA-MB-231 nuclear extract, prepared in house
T2 sequence (P19338 whole entry): as above
Put plainly: Competitive EMSA, labeled TEL and MDA-MB-231 nuclear extracts. Conditions: for competition with TEL for binding to the nuclear protein: unlabeled competitor, 10-fold molar excess, FIG. 7B. (In general: A gel shift assay detects complexes by their altered migration in electrophoresis.)

Series [5] concerns the target T3, GRO-binding protein/nucleolin (HeLa nuclear extracts) (Homo sapiens, UniProt P19338).
T3 construct: HeLa nuclear extracts used in EMSAs were purchased from Promega Inc. (bandshift grade); host or cells: HeLa nuclear extract (bandshift grade), purchased
Put plainly: UV cross-linking of oligonucleotides to HeLa nuclear extracts. Conditions: labeled oligonucleotide with HeLa nuclear extracts; FIG. 6C. As to the method: For the UV crosslinking experiments, samples were incubated as described above (EMSA). They were then placed on ice and irradiated at 5 cm from the source using the “autocross link” function of a Stratagene UV Stratalinker. Following irradiation, samples were electrophoresed under denaturing conditions on a 8% polyacrylamide-SDS gel using a standard Tris glycine buffer and visualized by autoradiography.
To determine the approximate molecular weight of the protein involved in complex A, and to confirm that competition for this complex results from direct binding of the protein to oligonucleotides, a UV cross-linking study was conducted. 5′-Labeled oligonucleotides and HeLa nuclear extracts were incubated alone or in the presence of unlabeled competitor oligonucleotides.
The samples were then irradiated with UV light resulting in cross-link formation between protein residues and thymidines in the oligonucleotide. The protein was thus radiolabeled and could be detected on a SDS-polyacrylamide gel.

For the next series, the system named is breast cancer cells. Put plainly: Summary statements on growth of breast cancer cells / antiproliferative activity. Type of series: cell-based. Conditions: for antiproliferative activity: cells not given; for modulate the growth of breast cancer cells and/or compete for binding to the G-rich oligonucleotide binding protein (EMSA): and/or statement, FIGS. 6 and 7. The source says:
(§1) By G-rich oligonucleotide (GRO) it is meant that the oligonucleotides consist of 4-100 nucleotides (preferably 10-30 nucleotides) with DNA, RNA, 2′-O-methyl, phosphorothioate or other chemically similar backbones. Their sequences contain one or more GGT motifs. The oligonucleotides have antiproliferative activity against cells and bind to GRO binding protein and/or nucleolin.

Series [6] addresses T4, G-rich oligonucleotide binding protein / nucleolin (Homo sapiens, UniProt P19338).
T4 construct: endogenous in cells; MDA-MB-231)
Put plainly: Protein binding, summary statements (EMSA). Conditions: summary statement.
Source text: as §1
Additionally, the present invention provides a method for selecting oligonucleotides that bind to nucleolin. The method utilizes an electrophoretic mobility shift assay (EMSA), as described below, to screen for oligonucleotides that bind strongly to nucleolin and which, therefore, would be expected, according to the present invention, to have anti-proliferative activity. Oligonucleotides to be screened as potential antiproliferative agents are labeled and then incubated with nuclear extracts in the absence or presence of unlabeled competitor oligonucleotide and are allowed to react. The reaction mixtures are then electrophoresed and mobility shifts and/or bond intensity can be used to identify those oligonucleotides which have bound to the specific protein.
Alternatively, unlabeled compounds to be screened are incubated with nuclear extracts in the presence of labeled oligonucleotide (for example 5′-TTAGGGTTAGGGTTAGGG TTAGGG) (SEQ ID NO: 20) and binding is assessed by a decrease in the intensity of the shifted band, as in FIG. 6B.

T4 sequence (P19338 whole entry): as above
T3 sequence (P19338 whole entry): as above

As to “GRO15B: inactive G-rich oligonucleotide, SEQ ID NO: 22 (TTGGGGGGGGTGGGT; DNA, backbone not given here; further chemistry not fully specified)”, in series [1], the “G-quartet formation (UV annealing curve)” value is listed as “no transition characteristic of intramolecular G-quartet formation”. For the same substance, the “hybridization to protein band at 106 kDa (Southwestern blot)” value in series [2] was “hybridized only weakly”. The “antiproliferative activity, MDA-MB-231” value in series [3] was “inactive”.

As to “5′-GGTTGGGGTGGGTGGGGTG GGTGGG-3′ (GGTTGGGGTGGGTGGGGTGGGTGGG; DNA, backbone not given here; further chemistry not fully specified) [GR025A]”, the “competition with TEL for binding to the nuclear protein” value (shortened to “competition with TEL for binding”) in series [4] was “able to compete”. Also, the “antiproliferative activity, MDA-MB-231” value in series [3] is “moderate antiproliferative activity”.

Take “5′-TTAGGGTTAGGGTTAGGGTTAGGG [TEL, reference compound]”: the “competition for protein binding in competitive EMSA” value in series [4] (10 nM unlabeled oligonucleotide, […]) is recorded as “competed strongly”. Also, the “G-quartet formation (UV annealing curve)” value in series [1] was “clear transition”. The “melting temperature of G-quartet transition” value in series [1] (Tm buffer pH 8.0, 140 mM KCl, 0.5° C./min) is 66 °C. Moreover, the “UV cross-linked protein complex (approximately 100 kDa)” value in series [5] is listed as “crosslinked to a protein”. Besides, the “growth of MDA-MB-231 cells, unmodified oligonucleotides” value in series [3] (10 uM in serum-free medium 4 h, then 10% fetal calf serum, day 7, FIG. 7D) was “modulated the growth of cells”.

In the case of “5′-TTTGGTGGTGGTGGTTGTGG TGGTGGTG-3′ (TTTGGTGGTGGTGGTTGTGGTGGTGGTG; DNA, backbone not given here; further chemistry not fully specified) [GR028A]”, in series [4], the “competition with TEL for binding” value is “able to compete”. Moreover, the “antiproliferative activity, MDA-MB-231” value in series [3] is “moderate antiproliferative activity”.

On to “5′-GTTGTTTGGGGTGG-3′ (DNA, backbone not given here; further chemistry not fully specified) [GRO14A]”, for which the “competition with TEL for binding” value in series [4] was “able to compete”. The “antiproliferative activity, MDA-MB-231” value in series [3] was “moderate antiproliferative activity”.

heparin [reference compound]: in series [4] (0.02 units/ml (approximately 0.12 ug/ml)), the “competition for protein binding in competitive EMSA, heparin” value is on record as “No competition”. In addition, in series [3] (20 units/ml (approximately 0.12 mg/ml), FIG. 7C), the “growth of MDA-MB-231 cells, heparin” value is “no effect on cell growth”.

Regarding “5′-TTTGGTGGTGGT GGTGTGGTGGTGGTGG-3′ (TTTGGTGGTGGTGGTGTGGTGGTGGTGG; DNA, backbone not given here; further chemistry not fully specified) [GR028B]”, the antiproliferative activity entry with breast cancer cells is recorded as “demonstrated antiproliferative activity”. Further, the protein binding entry in series [6] is reported as “protein binding”.

Consider “5′-TTTGGTGGTGGTGGTGGTGGTGGTGGTGG-3′ (aptamer; DNA, backbone not given here; further chemistry not fully specified) [GR029-3]”, for which, in the series on breast cancer cells, the “modulate the growth of breast cancer cells and/or compete for binding to the G-rich oligonucleotide binding protein (EMSA)” value (“modulate the growth” below) is “have been shown to modulate the growth of breast cancer cells and/or to compete for binding” and the antiproliferative activity result was “demonstrated antiproliferative activity”. In series [6], the protein binding result is given as “protein binding”.

On to “5′-TTTGGTGG TGGTGGTTTTGGTGGTGGTGG-3′ (TTTGGTGGTGGTGGTTTTGGTGGTGGTGG; aptamer; DNA, backbone not given here; further chemistry not fully specified) [GR029-2]”, for which, in the series with breast cancer cells, the “modulate the growth” value is listed as “have been shown to modulate the growth of breast cancer cells and/or to compete for binding” and the antiproliferative activity entry is “demonstrated antiproliferative activity”. The protein binding result in series [6] is given as “protein binding”.

For the substance “5′-TTTGGTGGTGGTGGTTTGGGTGGTGG TGG-3′ (TTTGGTGGTGGTGGTTTGGGTGGTGGTGG; aptamer; DNA, backbone not given here; further chemistry not fully specified) [GR029-5]”, in the series on breast cancer cells, the “modulate the growth” value is recorded as “have been shown to modulate the growth of breast cancer cells and/or to compete for binding” and the antiproliferative activity result is listed as “demonstrated antiproliferative activity”. Further, the protein binding entry in series [6] is “protein binding”.

For the substance “5′-GGTGGTGGTGGTTGT GGTGGTGGTGGTTT-3′ (GGTGGTGGTGGTTGTGGTGGTGGTGGTTT; DNA, backbone not given here; further chemistry not fully specified) [GR029-6]”, the antiproliferative activity entry in the series on breast cancer cells is listed as “demonstrated antiproliferative activity”. The protein binding result in series [6] is “protein binding”.

With “5′-TGGTGGTGGTGGT-3′ (DNA, backbone not given here; further chemistry not fully specified) [GR029-13]”, in the series with breast cancer cells, the “modulate the growth” value was “have been shown to modulate the growth of breast cancer cells and/or to compete for binding”.
